Results published in ChEMBL document CHEMBL6153072, “Metabolically Stable Adenylation Inhibitors of Biotin Protein Ligase as Antibacterial Agents” (J Med Chem, 2025).

Assays:
[1] = system: Mycobacterium tuberculosis; assay: Antimicrobial activity against wild type Mycobacterium tuberculosis H37Rv assessed as inhibition of microbial growth incubated for 14 days in biotin-deficient GAST medium by broth microdilution assay; assay type: functional; conditions: 336 h, time 14 day
Staphylococcus aureus [2] = assay: Antimicrobial activity against methicillin-resistant Staphylococcus aureus FPR3757 assessed as inhibition of microbial growth incubated for 14 days in biotin-deficient GAST medium by broth microdilution assay; assay type: functional; conditions: FPR3757, 336 h, time 14 day
[3] = molecular target: T1, Biotin--[acetyl-CoA-carboxylase] ligase (Mycobacterium tuberculosis (strain ATCC 25618 / H37Rv)) (UniProt I6YFP0); assay: Binding affinity to Mycobacterium tuberculosis BPL assessed as change in enthalpy by isothermal titration calorimetry
T1 sequence (whole entry): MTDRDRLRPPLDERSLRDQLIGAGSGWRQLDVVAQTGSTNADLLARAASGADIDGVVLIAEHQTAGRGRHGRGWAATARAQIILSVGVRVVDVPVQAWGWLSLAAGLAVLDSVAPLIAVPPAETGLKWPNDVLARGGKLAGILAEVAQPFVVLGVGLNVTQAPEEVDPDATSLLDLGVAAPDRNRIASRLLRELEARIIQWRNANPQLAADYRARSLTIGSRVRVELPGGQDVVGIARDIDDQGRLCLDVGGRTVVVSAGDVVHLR

Staphylococcus aureus [4] = assay: Antimicrobial activity against methicillin-sensitive Staphylococcus aureus […] assessed as inhibition of microbial growth incubated for 14 days in biotin-deficient GAST medium by broth microdilution assay; assay type: functional; conditions: 336 h, time 14 day
[5] = molecular target: T2, Biotin--[acetyl-CoA-carboxylase] ligase (Mycobacterium tuberculosis (strain ATCC 25618 / H37Rv), UniProt I6YFP0); assay: Binding affinity to Mycobacterium tuberculosis BPL assessed as dissociation constant by isothermal titration calorimetry
T2 sequence (I6YFP0 whole entry): T1 sequence (whole entry)

[6] = molecular target: T1, Biotin--[acetyl-CoA-carboxylase] ligase (Mycobacterium tuberculosis (strain ATCC 25618 / H37Rv)); assay: Binding affinity to Mycobacterium tuberculosis BPL assessed as change in gibbs free energy by isothermal titration calorimetry
[7] = molecular target: T1, Biotin--[acetyl-CoA-carboxylase] ligase (Mycobacterium tuberculosis (strain ATCC 25618 / H37Rv)); assay: Binding affinity to Mycobacterium tuberculosis BPL assessed as change in entropy by isothermal titration calorimetry
[8] = Drug metabolism in female CD-1 mouse assessed as AUC (0 to 24 hrs) of adenosine-5-sulfamide metabolite at 5 mg/kg, iv administered […] measured after 24 hrs by LC-MS/MS analysis; assay type: ADME, organism-based; conditions: in vivo
[9] = Clearance in female CD-1 mouse at 5 mg/kg, iv administered […] measured after 24 hrs by LC-MS/MS analysis; assay type: ADME, organism-based; conditions: in vivo
[10] = Volume of distribution in female CD-1 mouse at 5 mg/kg, iv administered […] measured after 24 hrs by LC-MS/MS analysis; assay type: ADME, organism-based; conditions: in vivo
[11] = Half life in female CD-1 mouse at 5 mg/kg, iv administered […] measured after 24 hrs by LC-MS/MS analysis; assay type: ADME, organism-based; conditions: in vivo
[12] = AUC (0 to 24 hrs) in female CD-1 mouse at 5 mg/kg, iv administered […] measured after 24 hrs by LC-MS/MS analysis; assay type: ADME, organism-based; conditions: in vivo
[13] = Renal clearance in female CD-1 mouse at 5 mg/kg, iv administered […] measured after 24 hrs by LC-MS/MS analysis; assay type: ADME, organism-based; conditions: in vivo
[14] = Hepatic clearance in female CD-1 mouse at 5 mg/kg, iv administered […] measured after 24 hrs by LC-MS/MS analysis; assay type: ADME, organism-based; conditions: in vivo
[15] = AUC (0 to 24 hrs) in female CD-1 mouse at 10 mg/kg, iv administered […] measured after 24 hrs by LC-MS/MS analysis; assay type: ADME, organism-based; conditions: in vivo
[16] = Half life in female CD-1 mouse at 10 mg/kg, iv administered via gavage measured after 24 hrs by LC-MS/MS analysis; conditions: in vivo
[17] = Volume of distribution in female CD-1 mouse at 10 mg/kg, iv administered […] measured after 24 hrs by LC-MS/MS analysis; assay type: ADME, organism-based; conditions: in vivo
[18] = Clearance in female CD-1 mouse at 10 mg/kg, iv administered […] measured after 24 hrs by LC-MS/MS analysis; assay type: ADME, organism-based; conditions: in vivo
[19] = Cytotoxicity against African green monkey Vero cells; assay type: toxicity, cell-based, Chlorocebus sabaeus
HepG2 = assay: Cytotoxicity against human HepG2 cells assessed as inhibition of cell viability preincubated for 24 hrs and measured after 4 hrs by XTT assay; assay type: functional, cell-based

SMILES	MIC50 [1] [µM]	MIC50 (Staphylococcus aureus [2]) [µM]	deltaH [3] [kcal/mol]	MIC50 (Staphylococcus aureus [4]) [µM]	Kd [5] [nM]	deltaG [6] [kcal/mol]	TdeltaS [7] [kcal/mol]	AUC [8] [ng·h/mL]	clearance [9] [mL/min/kg]	Vd [10] [L/kg]	half-life [11] [min]	AUC(0-t) at 24 h [12] [ng·h/mL]	CL renal at 24 h [13] [mL/min/kg]	CLH [14] [mL/min/kg]	AUC(0-t) at 24 h [15] [ng·h/mL]	half-life at 24 h [16] [min]	Vd [17] [L/kg]	clearance [18] [mL/min/kg]	IC50 [19] [nM]	IC50 (HepG2) [nM]
Nc1cccc2c1ncn2CCCCNS(=O)(=O)NC(=O)CCCC[C@@H]1SC[C@@H]2NC(=O)N[C@@H]21	21	> 30	-12.3	> 30	220	-9.1	3.2	–	–	–	–	–	–	–	–	–	–	–	–	–
Nc1ncnc2c1ncn2[C@@H]1O[C@H](Cn2cc(C(=O)CCCC[C@@H]3SC[C@@H]4NC(=O)N[C@@H]43)nn2)[C@@H](O)[C@H]1O	> 100	29.4	–	29.4	–	–	–	–	–	–	–	–	–	–	–	–	–	–	–	–
Nc1ncnc2c1ncn2[C@@H]1O[C@H](CNS(=O)(=O)NC(=O)NCCCCC[C@@H]2SC[C@@H]3NC(=O)N[C@@H]32)[C@@H](O)[C@H]1O	> 100	12.8	-9.9	25.7	110	-9.4	0.48	–	–	–	–	–	–	–	–	–	–	–	–	–
CC(CCC[C@@H]1SC[C@@H]2NC(=O)N[C@@H]21)C(=O)[N-]S(=O)(=O)NC[C@H]1O[C@@H](n2cnc3c(N)ncnc32)[C@H](O)[C@@H]1O.[Na+] (stereo partly drawn)	50	0.2	-11.9	0.41	22	-10.4	1.5	29	10	0.54	39	8640	–	–	–	–	–	–	–	–
Nc1ncnc2c1ncn2[C@@H]1O[C@H](CNS(=O)(=O)[N-]C(=O)CCCC[C@@H]2SC[C@@H]3NC(=O)N[C@@H]32)[C@@H](O)[C@H]1O.[Na+]	2.2	0.02	-18.9	0.21	–	-12.4	6.6	782	58	0.94	11	1450	22.5	22.5	–	–	–	–	–	–
CC(=O)NC[C@H]1CN(c2ccc(N3CCOCC3)c(F)c2)C(=O)O1 [LINEZOLID]	–	–	–	–	–	–	–	–	–	–	–	–	–	–	11000	33	0.63	16.3	–	–
Nc1ncnc2c1ncn2[C@@H]1O[C@H](Cn2cc(CCCCC[C@@H]3SC[C@@H]4NC(=O)N[C@@H]43)nn2)[C@@H](O)[C@H]1O	> 100	15	-14.2	30	62	-9.9	4.3	–	–	–	–	–	–	–	–	–	–	–	–	–
Nc1ncnc2c1ncn2[C@@H]1O[C@H](CNS(N)(=O)=O)[C@@H](O)[C@H]1O	–	–	–	–	–	–	–	–	–	–	–	–	–	–	–	–	–	–	6000	–
Nc1ncnc2c1ncn2[C@@H]1O[C@H](CNS(=O)(=O)[N-]C(=O)NCCC[C@@H]2SC[C@@H]3NC(=O)N[C@@H]32)[C@@H](O)[C@H]1O.[Na+]	20	0.2	–	0.2	–	–	0.5	32	7	0.45	42	11200	–	–	–	–	–	–	–	> 100000
Nc1cccc2c1ncn2[C@@H]1O[C@H](CNS(=O)(=O)NC(=O)CCCC[C@@H]2SC[C@@H]3NC(=O)N[C@@H]32)[C@@H](O)[C@H]1O	> 100	> 30	-13.9	> 30	220	-9.4	4.5	–	–	–	–	–	–	–	–	–	–	–	–	–
CN(C(=O)CCCC[C@@H]1SC[C@@H]2NC(=O)N[C@@H]21)S(=O)(=O)NC[C@H]1O[C@@H](n2cnc3c(N)ncnc32)[C@H](O)[C@@H]1O	> 100	> 30	-9.6	> 30	120	-9.7	0.14	–	–	–	–	–	–	–	–	–	–	–	–	–
Nc1cccc2c1ncn2[C@@H]1O[C@H](CNS(=O)(=O)NC(=O)CCCC[C@@H]2SC[C@@H]3NC(=O)N[C@@H]32)[C@@H](F)[C@H]1O	> 100	> 30	-13.9	> 30	228	-9.1	4.8	–	–	–	–	–	–	–	–	–	–	–	–	–
C[C@@H]1NC(=O)N[C@@H]1CCCCCC(=O)NS(=O)(=O)NC[C@H]1O[C@@H](n2cnc3c(N)cccc32)[C@H](O)[C@@H]1O	> 100	> 30	-13.6	> 30	19	-10.6	3	–	–	–	–	–	–	–	–	–	–	–	–	–
Nc1ncnc2c1ncn2[C@@H]1O[C@H](CNS(=O)(=O)NC(=O)NCCCC[C@@H]2SC[C@@H]3NC(=O)N[C@@H]32)[C@@H](O)[C@H]1O	> 100	0.12	-11.5	0.25	55	-9.9	1.6	–	–	–	–	–	–	–	–	–	–	–	–	–
Nc1ncnc2c1ncn2[C@@H]1O[C@H](CNS(=O)(=O)NCCCCC[C@@H]2SC[C@@H]3NC(=O)N[C@@H]32)[C@@H](O)[C@H]1O	> 100	14.4	-23.2	28.7	23	-10.4	12.8	–	–	–	–	–	–	–	–	–	–	–	–	–
Nc1ncnc2c1ncn2[C@@H]1O[C@H](CNS(=O)(=O)NC(=S)NCCCC[C@@H]2SC[C@@H]3NC(=O)N[C@@H]32)[C@@H](O)[C@H]1O	> 100	7.2	-14.2	28.7	60	-9.9	4.3	–	–	–	–	–	–	–	–	–	–	–	–	–
